Entries after “also recorded” stand apart in the source; their conditions may differ. Ends that are not written are not given here.
Tests used:
[1] = test system: S. aureus ATCC 6538; test: Antimicrobial activity test on inoculated M17 agar plates (inhibition halo); assay type: cell-based, Staphylococcus aureus; details: for antimicrobial activity of variants (inhibition halo): 5 μl of 1 mg/ml aqueous solution on M17 agar plates of S. aureus ATCC 6538, overnight incubation, compared with SEQ ID NO: 1
Protocol: (§1) Bacterial strains were grown overnight in liquid culture on rotary shakers or on agar plates using M17 media supplemented with 0.5% glucose. S. aureus ATCC 6538 and S. epidermidis ATCC 12228 liquid cultures and agar plates were grown anaerobically at 37° C. Culture volume utilized in MIC assays was 200 μl.
(§2) Antimicrobial activities of bacteriocins were tested on M17 agar plates in Examples 1 and 3. In Example 1, 2 μl of bacteriocin peptide (SEQ ID NO: 1) aqueous solutions at a concentration of 1 mg/ml were deposited on inoculated M17 agar plates of S. aureus ATCC 6538 and S. epidermidis ATCC 12228. An equivalent amount of aureocin A53 aqueous solution (1 mg/ml concentration) was used as positive control. In the case of S. epidermidis ATCC 12228, an equivalent amount of pediocin A1 aqueous solution (1 mg/ml concentration) was used as negative control.
In Example 3, 5 μl of bacteriocin peptides (SEQ ID NO: 1, 3-97) aqueous solutions at a concentration of 1 mg/ml were deposited on inoculated M17 agar plates of S. aureus ATCC 6538. After overnight incubation, the presence of an inhibition halo was considered as a positive result of antimicrobial activity.

[2] = test system: S. epidermidis ATCC 12228; test: as above; assay type: cell-based, Staphylococcus epidermidis; details: 2 μl of 1 mg/ml aqueous solution on inoculated M17 agar plate, overnight incubation
Protocol: as §1, §2

[3] = test system: S. aureus ATCC 6538; test: MIC assay in liquid cultures (endpoint OD600); assay type: cell-based, Staphylococcus aureus; details: calculated as average concentration between wells 10 and 11
Protocol: as §1
(§3) Determination of bacteriocin (SEQ ID NO: 1) MIC values was performed in liquid cultures. Growth was assessed by measuring endpoint OD600 values in a Spectramax i3 (Molecular Devices, CA, USA). Minimum inhibitory concentration (MIC) was defined as the lowest concentration of bacteriocin which inhibited 50% of the growth of cultures as compared to reference cultures not exposed to the bacteriocin. Concentration of the bacteriocin in well 11 was 250 μg/ml in the case of S. aureus ATCC 6538 and 500 μg/ml in the case of S. epidermidis ATCC 12228, diluted 2-fold per subsequent well as shown in Table 3 (concentrations rounded to the second decimal): […]

[4] = test system: S. epidermidis ATCC 12228; test: MIC assay in liquid cultures (endpoint OD600); assay type: cell-based, Staphylococcus epidermidis; details: liquid culture, concentrations 0.49 to 500 μg/ml
Protocol: as §1, §3

For “MAFLKLVAKLGPKAAKWAWANKGKVLGWIRDGLAIDWIINKINDIVN [SEQ ID NO: 54]”, the “antimicrobial activity of variants (inhibition halo)” value [1] was “did not compromise its antimicrobial activity”.

For “MLAFLKLVAKLGPKAAKWAWANKGKVLGWIRDGLAIDWIINKINDIVN [SEQ ID NO: 1]”, the “inhibition halo on agar plate” value ([1]; 2 μl of 1 mg/ml aqueous solution on inoculated M17 agar plate, overnight incubation, S. aureus ATCC 6538) was “An inhibition halo was visible”, the “inhibition halo on agar plate” value [2] was “no inhibition halo was visible; also recorded: no inhibition halo was present” and the “MIC (lowest concentration inhibiting 50% of culture growth)” value [3] was 188 µg/mL. For the same substance, the “growth inhibition in MIC assay” value [4] was “No growth inhibition was observed”.

With “MLAFLKLVAKLGPKAAKWAWANKGKVLGWIRDGLAIINKINDIVN [SEQ ID NO: 62]” the “antimicrobial activity of variants (inhibition halo)” value [1] was “did not compromise its antimicrobial activity”.

With “MLFLKLVAKLGPKAAKWAWANKGKVLGWIRDGLAIDWIINKINDIVN [SEQ ID NO: 55]” the “antimicrobial activity of variants (inhibition halo)” value [1] was “did not compromise its antimicrobial activity”.

With aureocin A53 [reference compound] the “inhibition halo on agar plate” value [2] was “an inhibition halo was present”.

pediocin A1 [reference compound] was tested, and the “inhibition halo on agar plate” value [2] was “no inhibition halo was visible”.

From patent US20240285726A1, “Bacteriocin for new application” (Syngulon S.A., priority 2021, published 2024)
